Data as given in patent publication US8053458B2, “Dipyrazole compounds and their use as central nervous system agents” (Aventis Pharmaceuticals Inc., priority 2005, dated 2011).
Marks after values point to notes of the source that are not given here.

Experiments:
[1] = tested on: AMPA receptors; test: Voltage whole-cell recording: inhibition of KA-induced rundown of AMPA current in acutely dissociated prefrontal cortical neurons; format: cell-based, rats; conditions: KA 200 μM; rat PFC neurons; whole-cell voltage clamp, held at −60 mV; 0.1 μM was the lowest concentration tested
Procedure: (§1) Prefrontal cortical (PFC) neurons from young adult (3-5 weeks postnatal) rats are acutely dissociated using procedures similar to those described previously (Feng, et al., J Neurosci, 2001; Chen, et al., Proc Natl Acad Sci USA, 2004). After incubation of brain slices in a NaHCO3-buffered saline, PFC is dissected and placed in an oxygenated chamber containing papain (Sigma, 0.8 mg/ml) in HEPES-buffered Hank's balanced salt solution (HBSS, Sigma) at room temperature. After 40 minutes of enzyme digestion, tissue is rinsed three times in the low Ca^+2, HEPES-buffered saline and mechanically dissociated with a graded series of fire-polished Pasteur pipettes. The cell suspension is then plated into a 35 mm Lux Petri dish, which is then placed on the stage of a Nikon inverted microscope.
(§2) Whole-cell recordings of whole-cell ion channel currents employ standard voltage clamp techniques (Yan et al., Nat Neuroscience, 1999; Wang et al., J Neurosci, 2003; Tyszkiewicz et al., J. Physiol., 2004). The internal solution (inside the patch pipette) consists of (in mM): 180 N-methyl-d-glucamine (NMG), 40 HEPES, 4 MgCl2, 0.1 BAPTA, 12 phosphocreatine, 3 Na2ATP, 0.5 Na2GTP, 0.1 leupeptin, pH=7.2-7.3, 265-270 mosm/L. The external solution consists of (in mM): 127 NaCl, 20 CsCl, 10 HEPES, 1 CaCl2, 5 BaCl2, 12 glucose, 0.001 TTX, 0.02 glycine, pH=7.3-7.4, 300-305 mOsm/L. Recordings are obtained with an Axon Instruments 200B patch clamp amplifier that is controlled and monitored with an IBM PC running pCLAMP (v. 8) with a DigiData 1320 series interface (Axon instruments). Electrode resistances are typically 2-4 MΩ in the bath. After seal rupture to attain whole-cell recording conditions, series resistance (4-10 MΩ) is compensated (70-90%) and periodically monitored. The cell membrane potential is held at −60 mV.
(§3) The application of KA (200 μM) or NMDA (100 μM, in Mg^2+-free solution) evokes a partially desensitizing inward current. KA or NMDA is applied for 2 seconds every 30 seconds to minimize desensitization-induced decrease of current amplitude. Drugs are applied with a gravity-fed ‘sewer pipe’ system. The array of application capillaries (ca. 150 μm i.d.) is positioned a few hundred microns from the cell under study. Solution changes are effected by the SF-77B fast-step solution stimulus delivery device (Warner Instruments). Data are collected with PCLAMP software and analyzed with AXOGRAPH, KALEIDOGRAPH, and STATVIEW.
(§4) Compounds described herein inhibit the KA-induced rundown of AMPA current by either stabilizing the agonist-evoked current of increasing the current. Likewise, compounds described herein increase the NMDA-evoked current. The minimum effective dose (MED) was identified by determining the lowest concentration of inhibitor that was effective in each functional assay.

[2] = tested on: NMDA receptors; test: Voltage whole-cell recording: increase of NMDA-evoked current in acutely dissociated prefrontal cortical neurons; format: cell-based, rats; conditions: rat PFC neurons; for Increase of NMDA-Evoked Current, Minimal Effective Concentration: NMDA 100 μM in Mg2+-free solution, whole-cell voltage clamp; for Average percent increase in NMDA current (10 μM): compound at 10 μM, NMDA 100 μM
Procedure: as §1, §2, §3, §4

Structure (SMILES): Cc1cccc(-n2nc(C)c(-c3cc(C)n[nH]3)c2O)c1 [Example 15, 5,5′-Dimethyl-2′-(3-methyl-phenyl)-2H,2′H-[3,4′]bipyrazolyl-3′-ol]
- Inhibition of KA-Induced Rundown of AMPA Current, Minimal Effective Concentration [1]: 1.0 µM

Structure (SMILES): Cc1cc(-c2c(C)nn(-c3cccc(Cl)c3)c2O)[nH]n1 [Example 18, 5,5′-Dimethyl-2′-(3-chlorophenyl)-2H,2′H-[3,4′]bipyrazolyl-3′-ol]
- Increase of NMDA-Evoked Current, Minimal Effective Concentration [2]: 5 µM
- Average percent increase in NMDA current (10 μM) [2]: 55%
- Inhibition of KA-Induced Rundown of AMPA Current, Minimal Effective Concentration [1]: 1.0 µM

Structure (SMILES): Cc1cc(-c2c(C)nn(-c3ccccc3F)c2O)[nH]n1 [Example 4, 2′-(2-Fluoro-phenyl)-5,5′-dimethyl-2H,2′H-[3,4′]bipyrazolyl-3′-ol]
- Inhibition of KA-Induced Rundown of AMPA Current, Minimal Effective Concentration [1]: 0.1 * μM

Structure (SMILES): Cc1cc(-c2c(C)nn(-c3ccc(C(F)(F)F)cc3)c2O)[nH]n1 [Example 8, 5,5′-Dimethyl-2′-(4-trifluoromethyl-phenyl)-2H,2′H-[3,4′]bipyrazolyl-3′-ol]
- Increase of NMDA-Evoked Current, Minimal Effective Concentration [2]: 1 µM
- Average percent increase in NMDA current (10 μM) [2]: 303%

Structure (SMILES): Cc1cc(-c2c(C)nn(-c3ccc(Cl)cc3)c2O)[nH]n1 [Example 5, 2′-(4-Chloro-phenyl)-5,5′-dimethyl-2H,2′H-[3,4′]bipyrazolyl-3′-ol]
- Inhibition of KA-Induced Rundown of AMPA Current, Minimal Effective Concentration [1]: 0.1 * μM

Structure (SMILES): Cc1cc(-c2c(C)nn(-c3ccccc3)c2O)[nH]n1 [Example 25, 5,5′-Dimethyl-2′-phenyl-2H,2′H-[3,4′]bipyrazolyl-3′-ol]
- Inhibition of KA-Induced Rundown of AMPA Current, Minimal Effective Concentration [1]: 1.0 µM
